The text below walks through data of US20190053495A1, “POLYMERIC TOPICAL ANTISEPTIC COMPOUND AND METHOD OF USE” (priority 2017, published 2019).

For data set [1] the following is noted: 2 g/kg applied to 10% of shaven skin, ten test animals, Study Day 1; cited from earlier work.
Data set [2] is described as follows: Film thickness of skin scaffold by Dual Polarization Interferometry. The class given is physicochemical. From the text:
Film thickness of skin scaffold of polymer 1-Octadecanaminium NN Dimethyl (3 Trihydroxysilyl)propyl chloride polymer with Dual Polarization interferometry.

As for “alkyldimethylbenzylammonium chloride [Benzalkonium chloride]”, the “Skin reaction at the application site” value in data set [1] is “all test animals exhibit erythema, and edema at the application site”.
Take `CCCCCCCCCCCCCCCCCC[N+](C)(C)CCC[Si](OC)(OC)OC.[Cl-]` [ODTMSPC, 1-Octadecanaminium, N,N, Dimethyl-N-[(3-trimethoxysilyl)propyl] chloride]: in data set [2] (40 seconds post injection), the MASS turned out to be 3.83 ngmm^−2 and the THICKNESS was determined as 41.31 nm. In data set [2] (10 minutes post injection), this molecule gave an MASS of 3.76 ngmm^−2 and a THICKNESS of 33.51 nm.
